What all share (assay): NCI tumour cell line growth inhibition, 48 h
Assay [1] has as its system MDA-MB-435.
For assay [2], the system named is 786-0 renal.
In assay [3] the test system is UO-31 renal.
The test system of assay [4] is OVCAR-3 ovarian.
Assay [5] relates to NCI-H522 lung.
In assay [6] the test system is OVCAR-8 ovarian.
For assay [7], the system named is NCI-H23 lung.
The test system of assay [8] is ACHN renal.
Assay [9] deals with NCI/ADR-RES ovarian.
Assay [10] deals with NCI-H226 lung.
Assay [11] relates to MALME-3M melanoma.
For assay [12], the system named is SF-539 CNS.
The test system of assay [13] is IGROV1 ovarian.
Assay [14] deals with A549 NSCLC.
Assay [15] concerns DU-145 prostate.
Assay [16] concerns LOX IMVI melanoma.
Assay [17] concerns TK-10 renal.
Assay [18] concerns SW-620 colon.
The test system of assay [19] is HS 578T breast.

Molecules are shown by their SMILES.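 Step 1: Grow cells in 96-well plates. Step 2: Expose to compound for 48 hours at 5 concentrations. Step 3: Interpolate endpoints linearly; if unreached, use highest concentration. TGI is the concentration that stops growth completely.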

Consider `S=C(NNC1=NCCCCN1)Nc1ccccc1`, for which the TGI in assay [1], in assay [2], in [3], in [4], in [5] and in [6] was over 100 µM each time. Further, the TGI in assay [7], in assay [8], in assay [9], in [10], in assay [11] and in assay [12] was over 100 µM in each case. The TGI in assay [13] was over 100 µM; in assay [14], over 100 µM; in assay [15] it was over 100 µM; in assay [16], 94.7 µM.

Turning to `CCCC/C=C1\CCC(CN2CCOCC2)C1=O` (stereo not drawn), the TGI turned out to be 23 µM in assay [1]; 4.25 µM in [2]; 11.6 µM in assay [3]; 19.3 µM in assay [4]; 2.17 µM in [5]; 19.5 µM in [17]. The TGI in assay [18] is 5.13 µM; in [6] it was 22.5 µM; in assay [7] it was 12.2 µM; in [8] it was 8.23 µM; in assay [10], 24.2 µM; in [11] it was 4.95 µM. Moreover, the TGI came to 17.5 µM in assay [12]; 29.2 µM in assay [13]; 46.2 µM in [14]; 32.8 µM in assay [15]; 3.14 µM in assay [16].

Regarding `O=C(CN1CCOCC1)NC1=Nc2ncccc2C(=O)NN1`, the TGI in assay [1], in [2], in assay [3], in assay [4], in assay [17] and in [18] was over 10 µM in each case. For the same compound, the TGI in [6], in assay [7], in assay [8], in assay [10], in assay [11] and in assay [19] was over 10 µM each time. In addition, the TGI in assay [12], in assay [13], in assay [14], in [15] and in [16] was over 10 µM in each case.

Turning to `Cc1cc(Cl)ccc1N1C(=O)C(=O)C(c2nc3ccccc3s2)/C(=N\NC(=O)c2ccccc2O)C1=O` (stereo not drawn), the TGI in assay [2], in assay [3], in assay [4], in assay [5], in [17] and in assay [18] was over 100 µM throughout. The TGI in assay [6], in assay [7], in assay [8], in [10], in [11] and in assay [12] was over 100 µM each time. Further, the TGI in [13], in assay [14] and in assay [16] was over 100 µM each time.

Turning to `C1CSCCSS[C@@H]2CCCCC2SC1` (stereo partly drawn), the TGI in assay [1], in assay [2], in assay [3], in assay [4], in assay [5] and in [17] was over 100 µM throughout. In addition, the TGI in assay [18], in assay [6], in assay [7], in assay [9], in [12] and in assay [13] was over 100 µM throughout. Moreover, the TGI in assay [14], in [15] and in assay [16] was over 100 µM each time.

For the compound `CSc1ccc2c(cc1=O)C(NC(=O)c1cc(O)c(OC(=O)O)c(O)c1)CCc1cc(O)c(O)c(O)c1-2` (stereo not drawn), the TGI in assay [2] was over 90 µM; in assay [3] it was over 90 µM; in assay [4], 40 µM; in assay [5], 21.8 µM; in assay [17], over 90 µM; in [18] it was 29.3 µM. The TGI in assay [6] is over 90 µM; in assay [7] it was 42.5 µM; in [8], over 90 µM; in assay [10], 62.3 µM; in assay [11], over 90 µM; in assay [12] it was over 90 µM. Moreover, the values for the TGI in assay [13], in [14] and in [16] were 37.7 µM, 52 µM and 24.8 µM, respectively.

`CCN(CC)CC1CCCCN1CC(=O)N1c2ccc(Br)cc2C(=O)Nc2cccnc21` (stereo not drawn): the TGI in [1] was over 100 µM; in assay [2] it was over 100 µM; in assay [3], 44.8 µM; in assay [4], over 100 µM; in assay [5], over 100 µM; in [17], over 100 µM. Also, the TGI in assay [6], in [7], in [8], in assay [10], in [11] and in assay [19] was over 100 µM in each case. Besides, the TGI in assay [12], in assay [13], in assay [14], in assay [15] and in assay [16] was over 100 µM in each case.

For the compound `Clc1ccc(OCc2nnc(CCCCCCCCc3nnc(COc4ccc(Cl)cc4)o3)o2)cc1`, the TGI in assay [1], in assay [2], in assay [3], in [4], in [5] and in assay [17] was over 100 µM each time. Moreover, the TGI in assay [18], in assay [7], in assay [8], in [9], in [10] and in assay [11] was over 100 µM in each case. Further, the TGI in [14] and in [15] was over 100 µM throughout.

For the compound `COC(=O)[C@@H]1C[C@H]2[C@H](c3ccccc3Br)[C@@H](OC(C)=O)[C@@H](OCc3ccccc3)ON2O1`, the TGI in assay [1], in assay [2], in assay [3], in [4], in assay [17] and in [18] was over 100 µM throughout. Also, the TGI in assay [6], in [7], in assay [8], in assay [9], in [12] and in assay [13] was over 100 µM in each case. The TGI in assay [14], in assay [15] and in assay [16] was over 100 µM throughout.

As to `CC1(C)C2CCC1(C)C(NC(=O)CCN1CCOCC1)C2` (stereo not drawn), the TGI in assay [1], in assay [2], in assay [3], in assay [4], in assay [5] and in assay [17] was over 100 µM each time. Moreover, the TGI in assay [18], in assay [6], in assay [7], in assay [8], in assay [10] and in [11] was over 100 µM throughout. The TGI in [19], in assay [12], in [13], in [14] and in assay [15] was over 100 µM each time.

Take `C/C(CC(=O)Nc1ccc(C)cc1)=N\NC(N)=S`: the TGI in assay [2], in [3], in [4], in [5], in assay [17] and in assay [18] was over 100 µM in each case. Besides, the TGI in assay [6], in assay [7], in assay [8], in assay [10], in assay [11] and in [12] was over 100 µM in each case. For the same compound, the TGI in [13], in assay [14] and in assay [16] was over 100 µM each time.

For `CN(C)CCCNC(=O)c1cc(NC(=O)CCCn2c3ccccc3c3ccccc32)cn1C`, the TGI in [1] was over 100 µM; in assay [2] it was over 100 µM; in assay [3], over 100 µM; in [4], over 100 µM; in assay [17], 82 µM; in assay [18] it was over 100 µM. Besides, the TGI is over 100 µM in [6]; over 100 µM in assay [7]; over 100 µM in [8]; over 100 µM in [9]; over 100 µM in assay [10]; 61.7 µM in [11]. Moreover, the TGI in assay [12] was over 100 µM; in assay [13], 33.9 µM; in [14] it was over 100 µM; in assay [15], over 100 µM; in [16], over 100 µM.

Take `COc1cc([C@@H]2c3cc4c(cc3[C@@H](NC(=O)c3ccc(C(C)=O)cc3)C3COC(=O)[C@@H]32)OCO4)cc(OC)c1O` (stereo partly drawn): the TGI in assay [2] is 1.81 µM; in assay [3], 17.6 µM; in assay [4], 7.61 µM; in assay [5], 3.89 µM; in assay [17], 21.8 µM; in assay [18], 12.3 µM. Further, the TGI in assay [6] came to 13.7 µM; in assay [7], 1.41 µM; in assay [8], 1.75 µM; in assay [10], 1.93 µM; in assay [11], 3.33 µM; in assay [12], 1.89 µM. Moreover, the TGI in assay [13] was determined as 5.71 µM; in assay [14] it was 2.41 µM; in assay [16], 4.68 µM.

For the compound `CCOC(=O)C1C(=O)CC(C)(O)C(C(=O)OCC)C1c1ccc(O)c(OC)c1` (stereo not drawn), the TGI in assay [1], in assay [2], in assay [3], in assay [4], in assay [5] and in assay [17] was over 100 µM each time. The TGI in assay [18], in assay [6], in assay [7], in assay [8], in [9] and in [10] was over 100 µM in each case. Moreover, the TGI in [11], in [13], in [14], in assay [15] and in [16] was over 100 µM each time.

For the compound `O=c1[nH]nc2c3n[nH]c(=O)n3c3ccccc3n12`, the TGI in assay [2], in assay [3], in assay [4], in [5], in [17] and in assay [18] was over 100 µM throughout. In addition, the TGI in assay [6], in [7], in assay [8], in assay [10], in assay [11] and in assay [12] was over 100 µM each time. Besides, the TGI in assay [13], in assay [14] and in assay [16] was over 100 µM in each case.

For the compound `N[C@H]1CCc2c1nc1c(c2-c2ccccc2)CC[C@@H]1N`, the TGI is 30.2 µM in [1]; 28.6 µM in assay [2]; 30.1 µM in [5]; over 100 µM in [17]; 27.5 µM in assay [18]; over 100 µM in assay [6]. Moreover, the TGI in assay [7] was 61.6 µM; in [8] it was over 100 µM; in assay [9] it was over 100 µM; in [10], over 100 µM; in [11], 31.9 µM; in [12] it was 31.1 µM. Besides, the TGI in [13] was 31.4 µM; in assay [14] it was over 100 µM; in assay [15], over 100 µM; in assay [16], 30.6 µM.

Take `CC1(Br)C(=O)NC(=O)N([C@H]2C[C@H](O)[C@@H](CO)O2)C1N=[N+]=[N-]` (stereo partly drawn): the TGI in [2], in [3], in [4], in [5], in [17] and in assay [18] was over 100 µM in each case. Also, the TGI in [6], in [7], in assay [8], in assay [10], in assay [11] and in assay [12] was over 100 µM throughout. In addition, the TGI in [13], in assay [14] and in assay [16] was over 100 µM throughout.
